The record followed here is patent US10213427B2 (Incyte Corporation, priority 2010, dated 2019).

The structures appear in SMILES notation.

FGFR3 enzyme (Millipore), sequence (P22607 23-806): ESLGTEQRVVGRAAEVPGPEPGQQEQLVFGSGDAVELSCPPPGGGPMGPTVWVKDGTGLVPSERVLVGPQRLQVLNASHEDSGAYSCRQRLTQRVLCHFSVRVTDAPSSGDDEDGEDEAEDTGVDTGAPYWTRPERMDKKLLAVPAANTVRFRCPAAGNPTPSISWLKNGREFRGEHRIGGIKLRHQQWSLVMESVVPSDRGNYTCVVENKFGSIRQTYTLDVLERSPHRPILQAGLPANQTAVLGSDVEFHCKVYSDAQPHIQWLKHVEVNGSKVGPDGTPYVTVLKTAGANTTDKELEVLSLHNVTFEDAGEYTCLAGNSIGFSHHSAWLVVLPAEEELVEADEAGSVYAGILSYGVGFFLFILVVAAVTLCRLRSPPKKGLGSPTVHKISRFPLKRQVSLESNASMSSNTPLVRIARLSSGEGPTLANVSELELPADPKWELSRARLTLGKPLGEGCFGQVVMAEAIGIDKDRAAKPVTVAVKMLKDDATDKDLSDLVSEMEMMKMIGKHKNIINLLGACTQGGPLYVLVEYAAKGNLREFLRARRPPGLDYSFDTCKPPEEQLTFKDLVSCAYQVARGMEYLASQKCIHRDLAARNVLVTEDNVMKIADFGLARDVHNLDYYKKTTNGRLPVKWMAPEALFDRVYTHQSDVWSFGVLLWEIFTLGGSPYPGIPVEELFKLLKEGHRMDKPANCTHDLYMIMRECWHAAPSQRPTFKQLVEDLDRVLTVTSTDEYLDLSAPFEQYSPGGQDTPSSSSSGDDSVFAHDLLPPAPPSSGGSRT

The assay has as its target FGFR3 enzyme (Millipore) (Homo sapiens (Human), UniProt P22607). The assay is described as follows: FGFR3 Enzymatic Assay. It counts as biochemical. Conditions: FRET peptide phosphorylation, 140 μM ATP. How it is done: The inhibitor potency of compounds of the invention was measured in an enzyme assay that measures peptide phosphorylation using FRET measurements to detect product formation. Inhibitors were serially diluted in DMSO and a volume of 0.5 μL was transferred to the wells of a 384-well plate. A 10 μL volume of FGFR3 enzyme (Millipore) diluted in assay buffer (50 mM HEPES, 10 mM MgCl2, 1 mM EGTA, 0.01% Tween-20, 5 mM DTT, pH 7.5) was added to the plate and pre-incubated for 5-10 minutes. Appropriate controls (enzyme blank and enzyme with no inhibitor) were included on the plate. […] The plate was incubated at 25° C. for 1 hr. […] The plate was allowed to equilibrate for ˜1 hr before scanning the wells on a PheraStar plate reader.
GraphPad prism3 was used to analyze the data. The IC50 values were derived by fitting the data to the equation for a sigmoidal dose-response with a variable slope. Y=Bottom+(Top−Bottom)/(1+10^((Log IC50−X)*HillSlope)) where X is the logarithm of concentration and Y is the response.
For `CC(C(=O)N1CCOCC1)c1ccc(-c2cnn3c(-c4cccc(NC(=O)NCC(F)(F)F)c4)cnc3c2)cc1` (stereo not drawn) [Example 105, N-(3-{7-[4-(1-Methyl-2-morpholin-4-yl-2-oxoethyl)phenyl]imidazo[1,2-b]pyridazin-3-yl}phenyl)-N′-(2,2,2-trifluoroethyl)urea], the IC50 was less than 10 nM.
Turning to `COC1CCN(C(=O)C(C)n2cc(-c3cnn4c(-c5cccc(NC(=O)NCC(F)(F)F)c5)cnc4c3)cn2)C1` (stereo not drawn) [Example 68, N-[3-(7-{1-[2-(3-Methoxypyrrolidin-1-yl)-1-methyl-2-oxoethyl]-1H-pyrazol-4-yl}imidazo[1,2-b]pyridazin-3-yl)phenyl]-N′-(2,2,2-trifluoroethyl)urea], the IC50 is less than 10 nM.
Turning to `CC(C(=O)NCC#N)n1cc(-c2cnn3c(-c4cccc(NC(=O)NCC(F)(F)F)c4)cnc3c2)cn1` (stereo not drawn) [Example 66, N-(Cyanomethyl)-2-(4-{3-[3-({[(2,2,2-trifluoroethyl)amino]carbonyl}amino)phenyl]imidazo[1,2-b]pyridazin-7-yl}-1H-pyrazol-1-yl)propanamide], the half-maximal inhibitory concentration (IC50) was less than 10 nM.
For `CC(C(=O)NC1CCN(C)CC1)n1cc(-c2cnn3c(-c4cccc(NC(=O)NCC(F)(F)F)c4)cnc3c2)cn1` (stereo not drawn) [Example 71, N-(1-Methylpiperidin-4-yl)-2-(4-{3-[3-({[(2,2,2-trifluoroethyl)amino]carbonyl}amino)phenyl]imidazo[1,2-b]pyridazin-7-yl}-1H-pyrazol-1-yl)propanamide], the concentration for half-maximal inhibition (IC50) is less than 10 nM.
In turn, `N#CCC(c1ccco1)n1cc(-c2cnn3c(-c4cccc(NC(=O)NCC(F)(F)F)c4)cnc3c2)cn1` (stereo not drawn) [Example 91, N-[3-(7-{1-[2-Cyano-1-(2-furyl)ethyl]-1H-pyrazol-4-yl}imidazo[1,2-b]pyridazin-3-yl)phenyl]-N′-(2,2,2-trifluoroethyl)urea] came in with an IC50 of less than 10 nM.
`O=C(NCC(F)(F)F)Nc1cccc(-c2cnc3cc(-c4cnn(C5CCN(C(=O)NCC6CCCO6)CC5)c4)cnn23)c1` (stereo not drawn) [Example 40, N-(tetrahydrofuran-2-ylmethyl)-4-(4-{3-[3-({[(2,2,2-trifluoroethyl)amino]carbonyl}amino)phenyl]imidazo[1,2-b]pyridazin-7-yl}-1H-pyrazol-1-yl)piperidine-1-carboxamide] yielded an IC50 of less than 10 nM.
Under `CC(C(=O)N(C)C)c1ccc(-c2cnn3c(-c4cccc(NC(=O)NCC(F)(F)F)c4)cnc3c2)cc1` (stereo not drawn) [Example 99, N,N-Dimethyl-2-(4-{3-[3-({[(2,2,2-trifluoroethyl)amino]carbonyl}amino)phenyl]imidazo[1,2-b]pyridazin-7-yl}phenyl)propanamide] stands less than 10 nM.
`CC(C(=O)N1CCC(C#N)C1)n1cc(-c2cnn3c(-c4cccc(NC(=O)NCC(F)(F)F)c4)cnc3c2)cn1` (stereo not drawn) [Example 67, N-[3-(7-{1-[2-(3-Cyanopyrrolidin-1-yl)-1-methyl-2-oxoethyl]-1H-pyrazol-4-yl}imidazo[1,2-b]pyridazin-3-yl)phenyl]-N′-(2,2,2-trifluoroethyl)urea] returned an IC50 of less than 10 nM.
The figure for `O=C(NCC(F)(F)F)Nc1cccc(-c2cnc3cc(-c4cnn(C5CCN(C(=O)C6CCOC6)CC5)c4)cnn23)c1` (stereo not drawn) [Example 48, N-[3-(7-{1-[1-(tetrahydrofuran-3-ylcarbonyl)piperidin-4-yl]-1H-pyrazol-4-yl}imidazo[1,2-b]pyridazin-3-yl)phenyl]-N′-(2,2,2-trifluoroethyl)urea] is less than 10 nM; for `CNC(=O)C(C)c1ccc(-c2ccc3c(c2)ncn3-c2cccc(NC(=O)NCC(F)(F)F)c2)cc1` (stereo not drawn) [Example 14, N-Methyl-2-(4-{1-[3-({[(2,2,2-trifluoroethyl)amino]carbonyl}amino)phenyl]-1H-benzimidazol-5-yl}phenyl)propanamide] it is less than 10 nM.
Turning to `CNC(=O)C(C)n1cc(-c2cnn3c(-c4cccc(NC(=O)NCC(F)(F)F)c4)cnc3c2)cn1` (stereo not drawn) [Example 55, N-Methyl-2-(4-{3-[3-({[(2,2,2-trifluoroethyl)amino]carbonyl}amino)phenyl]imidazo[1,2-b]pyridazin-7-yl}-1H-pyrazol-1-yl)propanamide], the IC50 was less than 10 nM.
Molecule `Cn1ccc(S(=O)(=O)N2CCC(n3cc(-c4cnn5c(-c6cccc(NC(=O)NCC(F)(F)F)c6)cnc5c4)cn3)CC2)n1` [Example 31, N-{3-[7-(1-{1-[(1-methyl-1H-pyrazol-3-yl)sulfonyl]piperidin-4-yl}-1H-pyrazol-4-yl)imidazo[1,2-b]pyridazin-3-yl]phenyl}-N′-(2,2,2-trifluoroethyl)urea] came in with an IC50 of less than 10 nM.
The molecule `CN(C)CC(=O)N1CCC(n2cc(-c3cnn4c(-c5cccc(NC(=O)NCC(F)(F)F)c5)cnc4c3)cn2)CC1` [Example 33, N-{3-[7-(1-{1-[(Dimethylamino)acetyl]piperidin-4-yl}-1H-pyrazol-4-yl)imidazo[1,2-b]pyridazin-3-yl]phenyl}-N′-(2,2,2-trifluoroethyl)urea] registered an IC50 of less than 10 nM.
Molecule `N#CCC(n1cc(-c2cnn3c(-c4cccc(NC(=O)NCC(F)(F)F)c4)cnc3c2)cn1)C(F)(F)F` (stereo not drawn) [Example 90, N-[3-(7-{1-[1-(Cyanomethyl)-2,2,2-trifluoroethyl]-1H-pyrazol-4-yl}imidazo[1,2-b]pyridazin-3-yl)phenyl]-N′-(2,2,2-trifluoroethyl)urea] yielded an IC50 of less than 10 nM.
Molecule `CC(C(=O)NCc1nccn1C)c1ccc(-c2ccc3c(c2)ncn3-c2cccc(NC(=O)NCC(F)(F)F)c2)cc1` (stereo not drawn) [Example 20, N-[(1-Methyl-1H-imidazol-2-yl)methyl]-2-(4-{1-[3-({[(2,2,2-trifluoroethyl)amino]carbonyl}amino)phenyl]-1H-benzimidazol-5-yl}phenyl)propanamide] registered a concentration for half-maximal inhibition (IC50) of less than 10 nM.
On to `CC1(C(=O)N2CCC(n3cc(-c4cnn5c(-c6cccc(NC(=O)NCC(F)(F)F)c6)cnc5c4)cn3)CC2)CC1` [Example 42, N-{3-[7-(1-{1-[(1-Methylcyclopropyl)carbonyl]piperidin-4-yl}-1H-pyrazol-4-yl)imidazo[1,2-b]pyridazin-3-yl]phenyl}-N′-(2,2,2-trifluoroethyl)urea], for which the half-maximal inhibitory concentration (IC50) was less than 10 nM.
`N#CCC(n1cc(-c2ccc3c(c2)ncn3-c2cccc(NC(=O)NCC(F)(F)F)c2)cn1)C(F)(F)F` (stereo not drawn) [Example 22, N-[3-(5-{1-[1-(Cyanomethyl)-2,2,2-trifluoroethyl]-1H-pyrazol-4-yl}-1H-benzimidazol-1-yl)phenyl]-N′-(2,2,2-trifluoroethyl)urea]: the IC50 was less than 10 nM.
Under `O=C(NCC(F)(F)F)Nc1cccc(-n2cnc3cc(-c4cnn(C5CCN(C(=O)N6CCCC6)CC5)c4)ccc32)c1` [Example 26, N-[3-(5-{t-[1-(Pyrrolidin-1-ylcarbonyl)piperidin-4-yl]-1H-pyrazol-4-yl}-1H-benzimidazol-1-yl)phenyl]-N′-(2,2,2-trifluoroethyl)urea] stands less than 10 nM; under `O=C(NCC(F)(F)F)Nc1cccc(-n2cnc3cc(-c4cnn(C5CCN(C(=O)Nc6cccnc6)CC5)c4)ccc32)c1` [Example 25], less than 10 nM; under `O=C(NCC(F)(F)F)Nc1cccc(-c2cnc3cc(-c4cnn(C5CCN(C(=O)NCc6ccccc6)CC5)c4)cnn23)c1` [Example 39, N-Benzyl-4-(4-{3-[3-({[(2,2,2-trifluoroethyl)amino]carbonyl}amino)phenyl]imidazo[1,2-b]pyridazin-7-yl}-1H-pyrazol-1-yl)piperidine-1-carboxamide], less than 10 nM.
The figure for `N#CCC(=O)N1CCC(n2cc(-c3cnn4c(-c5cccc(NC(=O)NCC(F)(F)F)c5)cnc4c3)cn2)CC1` [Example 44, N-[3-(7-{1-[1-(Cyanoacetyl)piperidin-4-yl]-1H-pyrazol-4-yl}imidazo[1,2-b]pyridazin-3-yl)phenyl]-N′-(2,2,2-trifluoroethyl)urea] is less than 10 nM.
`Cn1cc(C(=O)N2CCC(n3cc(-c4ccc5c(c4)ncn5-c4cccc(NC(=O)NCC(F)(F)F)c4)cn3)CC2)cn1` [Example 23, N-{3-[5-(1-{1-[(1-Methyl-1H-pyrazol-4-yl)carbonyl]piperidin-4-yl}-1H-pyrazol-4-yl)-1H-benzimidazol-1-yl]phenyl}-N′-(2,2,2-trifluoroethyl)urea] gave an IC50 of less than 10 nM.
With `O=C(NCC(F)(F)F)Nc1cccc(-n2cnc3cc(-c4cccc(C(=O)NCCN5CCOCC5)c4)ccc32)c1` [Example 4, N-(2-Morpholin-4-ylethyl)-3-{1-[3-({[(2,2,2-trifluoroethyl)amino]carbonyl}amino)phenyl]-1H-benzimidazol-5-yl}benzamide], the IC50 is less than 10 nM.
In the case of `CC(C(=O)NC[C@@H]1CCCO1)c1ccc(-c2cnn3c(-c4cccc(NC(=O)NCC(F)(F)F)c4)cnc3c2)cc1` (stereo partly drawn) [Example 100], the IC50 was less than 10 nM.
As to `CC(C(=O)N1CCOCC1)n1cc(-c2cnn3c(-c4cccc(NC(=O)NCC(F)(F)F)c4)cnc3c2)cn1` (stereo not drawn) [Example 58, N-(3-{7-[1-(1-Methyl-2-morpholin-4-yl-2-oxoethyl)-1H-pyrazol-4-yl]imidazo[1,2-b]pyridazin-3-yl}phenyl)-N′-(2,2,2-trifluoroethyl)urea], the IC50 was less than 10 nM.
Regarding `O=C(NCC(F)(F)F)Nc1cccc(-n2cnc3cc(-c4ccc(C(=O)NCC5CCCCC5O)cc4)ccc32)c1` (stereo not drawn) [Example 9], the 50% inhibitory concentration (IC50) was less than 10 nM.
Molecule `CNC(=O)Nc1cccc(-c2cnc3cc(-c4cccc(C(=O)NC(C)c5ccccc5F)c4)cnn23)c1` (stereo not drawn) [Example 97, N-[1-(2-Fluorophenyl)ethyl]-3-[3-(3-{[(methylamino)carbonyl]amino}phenyl)imidazo[1,2-b]pyridazin-7-yl]benzamide] had an IC50 of more than 25 nM.
